The target of this test is T1, G protein-coupled receptor-91 (GPR91) (Rattus norvegicus, UniProt Q6IYF9).
T1 construct: gene Sucnr1
Put plainly: cell-based.

T1 sequence (Q6IYF9 whole entry): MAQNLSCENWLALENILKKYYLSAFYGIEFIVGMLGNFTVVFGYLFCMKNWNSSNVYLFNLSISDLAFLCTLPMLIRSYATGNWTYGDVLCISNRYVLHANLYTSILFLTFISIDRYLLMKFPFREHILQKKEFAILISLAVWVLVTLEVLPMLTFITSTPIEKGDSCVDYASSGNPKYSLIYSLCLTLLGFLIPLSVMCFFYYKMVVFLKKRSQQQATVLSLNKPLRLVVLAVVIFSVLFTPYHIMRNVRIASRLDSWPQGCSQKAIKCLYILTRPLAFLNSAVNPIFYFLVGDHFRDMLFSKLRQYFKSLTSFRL

Turning to `O=C(O)CCC(=O)O` [succinate], the response was half-maximal at 154 µM (EC50).

Values taken from publication PMC5986788, “Succinate induces aberrant mitochondrial fission in cardiomyocytes through GPR91 signaling” (Cell Death & Disease, 2018).
